Read-outs that look alike come from different tables or passages of the source. Non-standard residues stand in square brackets, D forms with d. Residues, ends and D or L forms follow the SMILES beside them. *: point of attachment. pY = N[C@@H](Cc1ccc(OP(=O)(O)O)cc1)C(=O)O; Caffeoyl = O=C(/C=C/c1ccc(O)c(O)c1)*
Assays:
Assay in all cases: biochemical
Assay type in all cases: binding
CRKL = target: T1, CRKL (Homo sapiens, UniProt P46109)
T1 construct: the DNA-tagged SH2 domain concentrations used in this study were <0.1 nM; made in house; host or cells: HEK293 (transient transfection; unpurified extract)

PIK3R3(SH2dom.N-term.) = target: T2, PIK3R3(SH2dom.N-term.) (Homo sapiens, UniProt Q92569); details: for remaining activity at 10 µM: read-out: percent of DMSO vehicle control
T2 construct: SH2dom.N-term. denotes SH2 domain closest to N-terminus of protein; made in house; host or cells: HEK293 (transient transfection, unpurified extract)

SOCS6 = target: T3, SOCS6 (Homo sapiens, UniProt O14544); details: for remaining activity at 10 µM: read-out: percent of DMSO vehicle control
T3 construct: made in house; host or cells: HEK293 (transient transfection), unpurified extract
T3 sequence (O14544 1-535): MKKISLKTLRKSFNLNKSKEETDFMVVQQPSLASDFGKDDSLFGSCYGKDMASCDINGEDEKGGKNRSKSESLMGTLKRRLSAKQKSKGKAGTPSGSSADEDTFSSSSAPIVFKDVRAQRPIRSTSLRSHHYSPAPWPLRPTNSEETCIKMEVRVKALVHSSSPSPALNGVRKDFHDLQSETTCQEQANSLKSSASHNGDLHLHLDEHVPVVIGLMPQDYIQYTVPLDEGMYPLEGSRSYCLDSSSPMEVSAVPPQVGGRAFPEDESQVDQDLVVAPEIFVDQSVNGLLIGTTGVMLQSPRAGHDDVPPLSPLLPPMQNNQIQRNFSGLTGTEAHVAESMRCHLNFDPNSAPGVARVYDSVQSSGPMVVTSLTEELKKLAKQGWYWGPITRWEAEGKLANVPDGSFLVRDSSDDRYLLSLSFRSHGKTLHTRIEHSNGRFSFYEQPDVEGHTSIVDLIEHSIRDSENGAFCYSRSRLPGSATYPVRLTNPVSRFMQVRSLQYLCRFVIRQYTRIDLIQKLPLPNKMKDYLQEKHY

SOCS2 = target: T4, SOCS2 (Homo sapiens, UniProt O14508); details: for remaining activity at 10 µM: read-out: percent of DMSO vehicle control
T4 construct: made in house; host or cells: HEK293 (transient transfection), unpurified extract
T4 sequence (O14508 1-198): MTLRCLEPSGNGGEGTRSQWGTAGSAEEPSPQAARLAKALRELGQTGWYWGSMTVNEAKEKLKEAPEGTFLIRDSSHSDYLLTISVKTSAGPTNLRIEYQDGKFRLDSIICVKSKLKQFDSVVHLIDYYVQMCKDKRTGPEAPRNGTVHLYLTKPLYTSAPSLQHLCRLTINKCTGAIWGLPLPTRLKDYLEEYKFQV

GRB14 = target: T5, GRB14 (Homo sapiens, UniProt Q14449); details: for remaining activity at 10 µM: read-out: percent of DMSO vehicle control
T5 construct: the DNA-tagged SH2 domain concentrations used in this study were <0.1 nM; made in house; host or cells: HEK293 (transient transfection; unpurified extract)
T5 sequence (Q14449 439-535 limits assumed): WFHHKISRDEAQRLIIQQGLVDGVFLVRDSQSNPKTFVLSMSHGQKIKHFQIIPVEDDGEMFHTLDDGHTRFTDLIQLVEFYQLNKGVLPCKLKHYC

ABL2 = target: T6, ABL2 (Homo sapiens, UniProt P42684)
T6 construct: the DNA-tagged SH2 domain concentrations used in this study were <0.1 nM; made in house; host or cells: HEK293 (transient transfection; unpurified extract)
T6 sequence (P42684 173-263 limits assumed): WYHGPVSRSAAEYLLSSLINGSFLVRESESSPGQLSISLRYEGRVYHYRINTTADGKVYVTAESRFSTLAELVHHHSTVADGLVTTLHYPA

BLK = target: T7, BLK (Homo sapiens, UniProt P51451); details: for remaining activity at 10 µM: read-out: percent of DMSO vehicle control
T7 construct: the DNA-tagged SH2 domain concentrations used in this study were <0.1 nM; made in house; host or cells: HEK293 (transient transfection; unpurified extract)

SOCS7 = target: T8, SOCS7 (Homo sapiens, UniProt O14512); details: for remaining activity at 10 µM: read-out: percent of DMSO vehicle control
T8 construct: made in house; host or cells: HEK293 (transient transfection), unpurified extract
T8 sequence (O14512 1-581): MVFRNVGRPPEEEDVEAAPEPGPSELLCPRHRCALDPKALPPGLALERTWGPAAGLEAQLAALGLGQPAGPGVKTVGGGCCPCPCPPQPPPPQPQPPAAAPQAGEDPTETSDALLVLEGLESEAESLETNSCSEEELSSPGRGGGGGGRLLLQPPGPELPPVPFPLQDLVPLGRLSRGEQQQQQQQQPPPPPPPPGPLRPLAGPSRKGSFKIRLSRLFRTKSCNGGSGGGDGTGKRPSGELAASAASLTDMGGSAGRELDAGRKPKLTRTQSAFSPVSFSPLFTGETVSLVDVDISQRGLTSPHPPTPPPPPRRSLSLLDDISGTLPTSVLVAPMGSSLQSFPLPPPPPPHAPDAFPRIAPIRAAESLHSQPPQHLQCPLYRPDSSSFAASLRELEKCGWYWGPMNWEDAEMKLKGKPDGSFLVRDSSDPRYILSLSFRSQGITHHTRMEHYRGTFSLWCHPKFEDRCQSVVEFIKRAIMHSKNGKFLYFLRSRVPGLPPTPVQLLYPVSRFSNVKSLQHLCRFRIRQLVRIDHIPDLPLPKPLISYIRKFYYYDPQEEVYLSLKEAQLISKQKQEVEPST

RASA1(SH2dom.C-term.) = target: T9, RASA1(SH2dom.C-term.) (Homo sapiens, UniProt P20936); details: for remaining activity at 10 µM: read-out: percent of DMSO vehicle control
T9 construct: SH2dom.C-term. denotes SH2 domain closest to C-terminus of protein; made in house; host or cells: HEK293 (transient transfection, unpurified extract)
T9 sequence (P20936 351-441 limits assumed): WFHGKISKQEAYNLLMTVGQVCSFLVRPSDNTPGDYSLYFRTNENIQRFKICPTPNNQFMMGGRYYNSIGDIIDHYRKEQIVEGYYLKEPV

MIST = target: T10, MIST (Homo sapiens, UniProt Q7Z7G1)
T10 construct: the DNA-tagged SH2 domain concentrations used in this study were <0.1 nM; made in house; host or cells: HEK293 (transient transfection, unpurified extract)
T10 sequence (Q7Z7G1 309-419 limits assumed): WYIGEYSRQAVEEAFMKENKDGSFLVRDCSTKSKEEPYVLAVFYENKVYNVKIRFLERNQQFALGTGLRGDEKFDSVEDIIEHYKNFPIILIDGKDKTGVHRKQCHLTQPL

STAP1 = target: T11, STAP1 (Homo sapiens, UniProt Q9ULZ2); details: for remaining activity at 10 µM: read-out: percent of DMSO vehicle control
T11 construct: made in house; host or cells: HEK293 (transient transfection), unpurified extract
T11 sequence (Q9ULZ2 1-295): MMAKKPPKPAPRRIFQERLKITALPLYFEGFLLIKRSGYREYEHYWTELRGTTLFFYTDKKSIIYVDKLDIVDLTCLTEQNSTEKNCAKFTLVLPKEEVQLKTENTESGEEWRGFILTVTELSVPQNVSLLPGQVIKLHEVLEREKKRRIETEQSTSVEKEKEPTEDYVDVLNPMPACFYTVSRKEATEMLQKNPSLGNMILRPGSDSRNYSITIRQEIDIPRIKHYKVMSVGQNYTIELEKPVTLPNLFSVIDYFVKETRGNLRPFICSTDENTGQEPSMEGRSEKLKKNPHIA

PIK3R1(SH2dom.C-term.) = target: T12, PIK3R1(SH2dom.C-term.) (Homo sapiens, UniProt P27986); details: for remaining activity at 10 µM: read-out: percent of DMSO vehicle control
T12 construct: SH2dom.C-term. denotes SH2 domain closest to C-terminus of protein; made in house; host or cells: HEK293 (transient transfection, unpurified extract)

[1] = read-out: percent of DMSO vehicle control
[2] = primary screen, 10 μM, read-out: percent of DMSO vehicle control

T7 sequence (P51451 124-220 limits assumed): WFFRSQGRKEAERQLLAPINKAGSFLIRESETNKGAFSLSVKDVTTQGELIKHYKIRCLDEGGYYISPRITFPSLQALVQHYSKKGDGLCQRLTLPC
T12 sequence (P27986 624-718 limits assumed): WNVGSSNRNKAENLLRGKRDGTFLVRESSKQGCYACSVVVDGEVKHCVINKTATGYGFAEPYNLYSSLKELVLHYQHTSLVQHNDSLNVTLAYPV
T1 sequence (P46109 14-102 limits assumed): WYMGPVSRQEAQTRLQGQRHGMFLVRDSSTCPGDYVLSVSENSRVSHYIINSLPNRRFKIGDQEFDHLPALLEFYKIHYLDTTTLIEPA

CC[C@H](C)[C@H](NC(=O)[C@H](CCC(=O)O)NC(=O)[C@H](CCC(=O)O)NC(=O)[C@H](Cc1ccc(OP(=O)(O)O)cc1)NC(C)=O)C(=O)N[C@@H](CCC(=O)O)C(N)=O [Ac-pYEEIE-NH2] (Ac-[pY]EEIE-NH2)
percent of DMSO vehicle control (CRKL; primary screen, 10 μM): 131.3%
percent of DMSO vehicle control (PIK3R3(SH2dom.N-term.); primary screen, 10 μM): 85.7%
percent of DMSO vehicle control (SOCS6; primary screen, 10 μM): 95.6±6.2%
percent of DMSO vehicle control (SOCS2; primary screen, 10 μM): 104.8%
percent of DMSO vehicle control (GRB14; primary screen, 10 μM): 56.1±7.2%
percent of DMSO vehicle control (ABL2; primary screen, 10 μM): 110.7%
percent of DMSO vehicle control (BLK; primary screen, 10 μM): 47.8%
percent of DMSO vehicle control (SOCS7; primary screen, 10 μM): 110.9%
percent of DMSO vehicle control (RASA1(SH2dom.C-term.); primary screen, 10 μM): 119.3%
percent of DMSO vehicle control (MIST; primary screen, 10 μM): 55.1%
percent of DMSO vehicle control (STAP1; primary screen, 10 μM): 101.0%
percent of DMSO vehicle control (PIK3R1(SH2dom.C-term.); primary screen, 10 μM): 35.8±9.3%

CC(=O)N[C@@H](Cc1ccc(CP(=O)(O)O)cc1)C(=O)NC1(C(=O)N[C@@H](CC(N)=O)C(=O)NCCCc2c(O)ccc3ccccc23)CCCCC1 [CGP78850]
percent of DMSO vehicle control at 10 µM (CRKL; [1]): 36.4 ± 18.5%
remaining activity at 10 µM (PIK3R3(SH2dom.N-term.)): 111 ± 10.3%
remaining activity at 10 µM (SOCS6): 63.3 ± 5.3%
remaining activity at 10 µM (SOCS2): 119 ± 4.7%
remaining activity at 10 µM (GRB14): 45.5 ± 1.4%
Kd (ABL2): 1100 ± 120 nM
percent of DMSO vehicle control at 10 µM (ABL2; [1]): 6.2 ± 0.1%
remaining activity at 10 µM (BLK): 42.1 ± 4.6%
remaining activity at 10 µM (SOCS7): 126 ± 4.2%
remaining activity at 10 µM (RASA1(SH2dom.C-term.)): 131 ± 42.7%
percent of DMSO vehicle control at 10 µM (MIST; [1]): 102 ± 2.3%
remaining activity at 10 µM (STAP1): 113 ± 2.6%
Kd (PIK3R1(SH2dom.C-term.)): 150 nM
remaining activity at 10 µM (PIK3R1(SH2dom.C-term.)): 0%

CC[C@H](C)[C@H](NC(=O)[C@H](CCC(=O)O)NC(=O)[C@H](CCC(=O)O)NC(=O)[C@H](Cc1ccc(OP(=O)(O)O)cc1)NC(=O)/C=C/c1ccc(O)c(O)c1)C(=O)N[C@@H](CCC(=O)O)C(=O)O [Caffeic acid-pYEEIE] (Caffeoyl-[pY]EEIE-OH)
percent of DMSO vehicle control at 10 µM (CRKL; [1]): 42.1 ± 6%
Kd (PIK3R3(SH2dom.N-term.)): 150 ± 20 nM
remaining activity at 10 µM (PIK3R3(SH2dom.N-term.)): 0.6%
Kd (SOCS6): 1900 ± 240 nM
remaining activity at 10 µM (SOCS6): 8.2 ± 0.1%
Kd (SOCS2): 1300 ± 880 nM
remaining activity at 10 µM (SOCS2): 2.6 ± 0.1%
Kd (GRB14): 1200 ± 920 nM
remaining activity at 10 µM (GRB14): 0%
Kd (ABL2): 1400 ± 360 nM
percent of DMSO vehicle control at 10 µM (ABL2; [1]): 0.7 ± 0.4%
Kd (BLK): 1.5 ± 0.69 nM
remaining activity at 10 µM (BLK): 0.1%
Kd (SOCS7): 280 ± 140 nM
remaining activity at 10 µM (SOCS7): 0.5 ± 0.4%
remaining activity at 10 µM (RASA1(SH2dom.C-term.)): 78 ± 6.4%
percent of DMSO vehicle control at 10 µM (MIST; [1]): 72.9 ± 1.4%
remaining activity at 10 µM (STAP1): 77.9 ± 1%
Kd (PIK3R1(SH2dom.C-term.)): 140 ± 100 nM
remaining activity at 10 µM (PIK3R1(SH2dom.C-term.)): 0.2 ± 0.1%

O=C(CCl)Nc1cccc(CNC(=O)[C@H](Cc2ccc(OP(=O)(O)O)cc2)NC(=O)Cc2ccc(F)cc2)c1 [MN551]
remaining activity at 10 µM (CRKL; [2]): 202%
remaining activity at 10 µM (PIK3R3(SH2dom.N-term.); primary screen, 10 μM): 97.7%
remaining activity at 10 µM (SOCS6; primary screen, 10 μM): 65.2 ± 0.1%
Kd (SOCS2; dose-response, read-out: KD): 400 nM
remaining activity at 10 µM (SOCS2; primary screen, 10 μM): 0%
remaining activity at 10 µM (GRB14; primary screen, 10 μM): 62.1 ± 2.4%
remaining activity at 10 µM (ABL2; [2]): 94.6 ± 1.6%
remaining activity at 10 µM (BLK; primary screen, 10 μM): 116%
Kd (SOCS7; dose-response, read-out: KD): 8100 nM
remaining activity at 10 µM (SOCS7; primary screen, 10 μM): 21.9 ± 5%
remaining activity at 10 µM (RASA1(SH2dom.C-term.); primary screen, 10 μM): 107%
remaining activity at 10 µM (MIST; [2]): 102%
remaining activity at 10 µM (STAP1; primary screen, 10 μM): 84.3 ± 2.8%
remaining activity at 10 µM (PIK3R1(SH2dom.C-term.); primary screen, 10 μM): 52.4%

Source: PMC12951562, “SH2scan: Mapping SH2 Domain-Ligand Binding Selectivity for Inhibitors and Degraders” (Journal of Medicinal Chemistry, 2026)
